Experimental data published in patent publication US4520022A, “Substituted vinyl cephalosporins” (priority 1983, dated 1985).
Converted amounts (≈) assume the structure as drawn.

Tested on: B. fragilis
Assay: In vitro activity against anaerobes (MIC), B. fragilis
Type: cell-based
Conditions: Bacteroides fragilis, B. fragilis A21900; β-lactamase (-); clindamycin resistant

CC1=C(C(=O)O)N2C(=O)[C@@H](NC(=O)[C@H](N)c3ccccc3)[C@H]2SC1 [Cephalexin]
MIC: 12.5 µg/mL (≈ 36 µM)
